Like-named read-outs stand apart in the source and are kept apart here.
Tests used:
[1] = target: BM-3(wt), wild-type P450BM-3 (Priestia megaterium, UniProt P14779); test: Steady-state turnover, products quantified by GC-MS, wild-type holoenzyme; format: biochemical, Bacillus megaterium; details: 50 nM enzyme, 250 μM substrate, 50 mM KPi pH 7.4, 25°C
[2] = target: BM-3(A328V), P450BM-3(A328V) (Priestia megaterium, UniProt P14779, A329V); test: Steady-state turnover, products quantified by GC-MS, A328V holoenzyme; format: biochemical, Bacillus megaterium; details: 50 nM enzyme, 250 μM substrate; for BM-3(A328V) turnover rate: 50 mM KPi pH 7.4, 25°C, GC-MS
Sequence of BM-3(A328V), P450BM-3(A328V) (P14779 whole entry A329V, the tested form may be a part): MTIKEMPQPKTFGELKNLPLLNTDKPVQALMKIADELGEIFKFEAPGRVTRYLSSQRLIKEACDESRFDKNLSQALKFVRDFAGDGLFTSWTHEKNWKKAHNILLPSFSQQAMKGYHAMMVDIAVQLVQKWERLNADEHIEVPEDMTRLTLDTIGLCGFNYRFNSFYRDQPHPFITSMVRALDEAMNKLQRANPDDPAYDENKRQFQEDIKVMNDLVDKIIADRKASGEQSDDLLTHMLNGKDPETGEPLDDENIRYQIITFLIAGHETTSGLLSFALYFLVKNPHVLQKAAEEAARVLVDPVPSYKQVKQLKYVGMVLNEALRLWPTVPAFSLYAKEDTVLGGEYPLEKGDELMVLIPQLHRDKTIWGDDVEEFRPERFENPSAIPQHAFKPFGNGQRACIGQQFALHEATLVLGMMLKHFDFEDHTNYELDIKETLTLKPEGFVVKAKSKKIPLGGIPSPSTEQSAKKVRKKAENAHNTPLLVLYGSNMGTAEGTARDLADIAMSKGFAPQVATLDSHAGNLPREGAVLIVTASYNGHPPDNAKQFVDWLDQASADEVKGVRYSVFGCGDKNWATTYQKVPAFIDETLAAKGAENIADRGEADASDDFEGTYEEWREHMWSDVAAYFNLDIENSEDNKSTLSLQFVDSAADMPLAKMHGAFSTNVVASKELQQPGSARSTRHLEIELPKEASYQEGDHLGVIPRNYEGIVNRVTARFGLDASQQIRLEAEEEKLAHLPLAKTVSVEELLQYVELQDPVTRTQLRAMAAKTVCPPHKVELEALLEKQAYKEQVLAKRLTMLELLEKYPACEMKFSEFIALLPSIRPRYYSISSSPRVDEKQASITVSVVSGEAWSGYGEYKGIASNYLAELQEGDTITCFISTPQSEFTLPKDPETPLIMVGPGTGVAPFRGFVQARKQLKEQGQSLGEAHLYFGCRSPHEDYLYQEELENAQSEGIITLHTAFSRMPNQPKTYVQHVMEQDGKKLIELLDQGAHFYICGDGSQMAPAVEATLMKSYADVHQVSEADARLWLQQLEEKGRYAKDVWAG

[3] = target: BMP(A328V), heme domain of P450BM-3 A328V mutant (Priestia megaterium, UniProt P14779, A329V); test: Substrate dissociation constants by UV-vis spectral titration, A328V heme domain; format: binding, Bacillus megaterium; details: for Fold Enhancement of substrate affinity, A328V versus wild type: ratio of BMP(wt) KD to BMP(A328V) KD
Sequence of BMP(A328V), heme domain of P450BM-3 A328V mutant (P14779 2-472 A329V): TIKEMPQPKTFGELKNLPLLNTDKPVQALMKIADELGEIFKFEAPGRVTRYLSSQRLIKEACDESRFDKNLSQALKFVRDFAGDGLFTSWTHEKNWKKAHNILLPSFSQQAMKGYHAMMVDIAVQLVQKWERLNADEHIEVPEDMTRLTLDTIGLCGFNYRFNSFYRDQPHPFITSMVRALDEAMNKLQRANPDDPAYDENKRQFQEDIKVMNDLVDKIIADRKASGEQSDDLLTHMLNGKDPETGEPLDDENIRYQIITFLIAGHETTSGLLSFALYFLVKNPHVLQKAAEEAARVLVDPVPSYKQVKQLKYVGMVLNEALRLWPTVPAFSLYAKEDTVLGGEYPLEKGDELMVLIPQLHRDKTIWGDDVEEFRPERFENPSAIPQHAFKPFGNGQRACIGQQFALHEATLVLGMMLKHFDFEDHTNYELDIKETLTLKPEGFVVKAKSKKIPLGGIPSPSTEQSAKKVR

BM-3(A328V) = details: 2% (v/v) DMSO, 200 μM substrate, 500 nM enzyme; cited from earlier work
BM-3(wt) = details: 2% (v/v) DMSO, 200 μM substrate, 500 nM enzyme; cited from earlier work
[4] = target: BMP(wt), heme domain of P450BM-3 (Priestia megaterium, UniProt P14779); format: binding, Bacillus megaterium
Sequence of BMP(wt), heme domain of P450BM-3 (P14779 2-472): as the sequence (P14779 2-472 A329V) above, with V328A counted along it

P450BM-3 wild-type = P450BM-3 wild-type (Priestia megaterium, UniProt P14779); test: Regiospecificity of hydroxylation, product distribution by GC/MS, wild type; format: biochemical, Bacillus megaterium; details: wild-type enzyme, 500 μM substrate, 50 nM enzyme, 250 μM NADPH, run to completion
Sequence of P450BM-3 wild-type (P14779 whole entry): as the sequence (P14779 whole entry A329V, the tested form may be a part) above, with V329A counted along it

P450BM-3(A328V) = P450BM-3(A328V) (Priestia megaterium, UniProt P14779, A329V); test: Regiospecificity of hydroxylation, product distribution by GC/MS, A328V; format: biochemical, Bacillus megaterium; details: A328V mutant, 500 μM substrate, 50 nM enzyme, 250 μM NADPH, run to completion
Sequence of P450BM-3(A328V) (P14779 whole entry A329V): as the sequence (P14779 whole entry A329V, the tested form may be a part) above

[5] = read-out: BMP(A328V) Dissociation Constant, 50 mM KPi pH 7.4, room temperature, 1 μM P450, UV-vis titration

Sequence of BM-3(wt), wild-type P450BM-3 (P14779 whole entry): as the sequence (P14779 whole entry A329V, the tested form may be a part) above, with V329A counted along it

Row | Structure (SMILES) | BM-3(wt) turnover rate [1] [μmol/min/μmol] | Fold Enhancement of turnover (rate A328V divided by rate wild type) [2] | BM-3(A328V) turnover rate [2] [μmol/min/μmol] | Kd [3, 5] [nM] | BM-3(A328V) turnover rate (BM-3(A328V)) [μmol/min/μmol] | BM-3(wt) turnover rate (BM-3(wt)) [μmol/min/μmol] | Fold Enhancement of substrate affinity, A328V versus wild type [3] | Kd [4] [nM] | ω-2 hydroxy product, percent of total oxidation products (P450BM-3 wild-type) [%] | ω-1 hydroxy product, percent of total oxidation products (P450BM-3(A328V)) [%] | Kd [3] [nM]
1 | CCCCCCCCCCCCCCCC(=O)N[C@@H](CC(C)C)C(=O)O [PalmLeu] | 1155 ± 20 | 3.4 | 3900 ± 320 | < 30 |  |  |  |  |  |  | 
2 | CC(=O)CC/C=C(/C)CCC=C(C)C [Nerylacetone] |  |  |  |  | 338 ± 10 | 155 ± 7 |  |  |  |  | 
3 | CCCCCCCCCCCCCCCC(=O)N[C@@H](CCC(=O)O)C(=O)O [PalmGlu, N-palmitoyl-L-glutamate] | 485 ± 15 | 8.2 | 3960 ± 280 | 410 ± 60 |  |  | 9.0 |  |  |  | 
4 | CCCCCCCCCCCCCCCC(=O)NCC(=O)O [PalmGly, N-palmitoylglycine] | 1875 ± 30 | 2.9 | 5500 ± 600 | 45 ± 14 |  |  | 7.1 |  |  |  | 
5 | CCCCCCCCCCCCCCCC(=O)O [Palmitate, palmitic acid] | 1480 ± 35 | 2.3 | 3355 ± 95 |  |  |  | 8.1 | 1300 ± 170 | 46 | 72 | 160 ± 20
6 | CCCCCCCCCCCCCCCC(=O)N[C@@H](CCSC)C(=O)O [PalmMet, N-palmitoyl-L-methionine] | 1690 ± 75 | 2.6 | 4400 ± 145 | < 30 |  |  |  |  |  |  | 
7 | CCCCCCCCCCCCCCCC(=O)N[C@@H](CCC(N)=O)C(=O)O [PalmGln, N-palmitoyl-L-glutamine] | 610 ± 25 | 7.4 | 4500 ± 500 | 74 ± 5 |  |  | 2.7 |  |  |  | 
